Article PMC4501006, “Preliminary Characterization and In Vivo Studies of Structurally Identical ^18F- and ^125I-Labeled Benzyloxybenzenes for PET/SPECT Imaging of β-Amyloid Plaques” (Scientific Reports, 2015)
Several values for one entry are separate records, joined by “and”; a condition that tells them apart may be missing. Identical values can stand only once.

Assay: In vivo biodistribution in normal ICR mice
Details: i.v.
Protocol: Histograms of brain and intestine uptake were presented in Fig. 6 for comparison, while detailed data concerning the in vivo biodistribution in normal ICR mice were collected in Table S3 in Supplementary information. […] [^125I]7a and [^125I]12a were rapidly cleared from the normal brain, with only small amounts of radioactivity remaining at 60 min post-injection (0.55% ID/g for [^125I]7a and 0.37% ID/g for [^125I]12a). […] In addition, no significant deiodination was observed (less than 0.5% ID in the thyroid at 60 min).
As the specific activity of ^18F-labeled ligands (about 60 GBq/μmol) was slightly lower than that of corresponding no-carrier-added ^125I-labeled ligands (81 GBq/μmol), the impact of specific activity on pharmacokinetics was studied. In vivo biodistribution of radioactivity after injection of carrier-added [^125I]7a with equal specific activity to corresponding [^18F]7a (60 GBq/μmol) was conducted in normal ICR mice through the same procedure.
A structural model of an Aβ fiber (PDB ID: 2LMO) derived from solid state NMR was downloaded from the RCSB Protein Data Bank (www.rcsb.org/pdb). Geometric optimization was performed using Gaussian 09 at the B3LYP/6–31 G and 3-21G levels in the water phase. Molecular docking was performed using AutoDock4.0, and the docking results were graphed with VMD 1.9.1 software. SYBYL-X 1.1 software was used to predict the binding affinities with previously constructed 3D-QSAR models. All reagents for chemical synthesis were used as purchased without further purification. [^125I]NaI was purchased from PerkinElmer and ^18F^– was kindly provided by the Chinese PLA General Hospital. ^1H and ^13C NMR spectra were recorded on a Bruker Avance III NMR spectrometer (400 MHz for ^1H; 101 MHz for ^13C) in CDCl3 or DMSO-d6 solutions at room temperature. Mass spectra were acquired with a GCT CA127 Micronass UK instrument. X-ray crystallographic data of compound 12a were collected on a Bruker Smart APEX II diffractometer (Bruker Co., Germany) and deposited at the Cambridge Crystallographic Data Centre as supplementary publication (no. CCDC 1063679). HPLC analysis was performed on a Shimadzu SCL-20 AVP equipped with a Bioscan Flow Count 3200 NaI/PMT γ-radiation scintillation detector and a SPD-20A UV detector, λ = 254 nm. A Venusil MP C18 reverse phase column (Agela Technologies, 5 μm, 4.6 × 250 mm) was used for separations and purity determinations with a binary gradient system (acetonitrile: water = 80%: 20%) at a 1.0 mL/min flow rate. Fluorescent observation was performed on the Axio Observer Z1 inverted fluorescence microscope (Zeiss, Germany) equipped with a DAPI filter set (excitation, 405 nm). Post-mortem brain sections from an autopsy-confirmed AD subject and a control subject were acquired from the Chinese Brain Bank. Transgenic mice (APPswe/PSEN1, male) and wild-type mice (C57BL6, male) were purchased from the Institute of Laboratory Animal Science, Chinese Academy of Medical Sciences. Normal ICR mice (20–22 g, male) were used for in vivo biodistribution, dynamic PET/CT and SPECT/CT scans, and biostability experiments. All experiments on mice were performed in accordance with the guidelines approved by the animal care committee of Beijing Normal University and Xiamen University.

[1] = carrier-added, SA ≈ 60 GBq/μmol, 2 min
[2] = carrier-added, SA ≈ 60 GBq/μmol, 10 min
[3] = carrier-added, SA ≈ 60 GBq/μmol, 30 min
[4] = carrier-added, SA ≈ 60 GBq/μmol, 60 min

## FCCOc1ccc(OCc2ccc([125I])cc2)cc1 [[^125I]7a]
[1]
  Biodistribution of radioactivity, blood: 3.30 ± 0.43 % injected dose per gram
  Biodistribution of radioactivity, brain: 5.39 % injected dose per gram
  Biodistribution of radioactivity, heart: 7.34 ± 0.69 % injected dose per gram
  Biodistribution of radioactivity, intestine: 4.57 ± 0.96 % injected dose per organ
  Biodistribution of radioactivity, kidney: 9.80 ± 1.05 % injected dose per gram
  Biodistribution of radioactivity, liver: 12.12 ± 2.01 % injected dose per gram
  Biodistribution of radioactivity, lung: 7.77 ± 0.18 % injected dose per gram
  Biodistribution of radioactivity, muscle: 3.37 ± 0.50 % injected dose per gram
  Biodistribution of radioactivity, pancreas: 6.79 ± 1.53 % injected dose per gram
  Biodistribution of radioactivity, spleen: 3.63 ± 0.83 % injected dose per gram
  Biodistribution of radioactivity, stomach: 1.15 ± 0.21 % injected dose per organ
  Biodistribution of radioactivity, thyroid: 0.12 ± 0.03 % injected dose per organ
carrier-added, SA ≈ 60 GBq/μmol, 2 min, listed as [125I]7a
  Biodistribution of radioactivity, brain: 5.39 ± 0.36 % injected dose per gram
[2]
  Biodistribution of radioactivity, blood: 2.31 ± 0.22 % injected dose per gram
  Biodistribution of radioactivity, brain: 3.51 ± 0.36 % injected dose per gram
  Biodistribution of radioactivity, heart: 2.32 ± 0.15 % injected dose per gram
  Biodistribution of radioactivity, intestine: 8.51 ± 0.48 % injected dose per organ
  Biodistribution of radioactivity, kidney: 10.01 ± 1.43 % injected dose per gram
  Biodistribution of radioactivity, liver: 11.30 ± 0.58 % injected dose per gram
  Biodistribution of radioactivity, lung: 6.50 ± 0.69 % injected dose per gram
  Biodistribution of radioactivity, muscle: 1.42 ± 0.20 % injected dose per gram
  Biodistribution of radioactivity, pancreas: 2.79 ± 0.35 % injected dose per gram
  Biodistribution of radioactivity, spleen: 1.53 ± 0.23 % injected dose per gram
  Biodistribution of radioactivity, stomach: 0.74 ± 0.09 % injected dose per organ
  Biodistribution of radioactivity, thyroid: 0.11 ± 0.01 % injected dose per organ
[3]
  Biodistribution of radioactivity, blood: 1.39 ± 0.15 % injected dose per gram
  Biodistribution of radioactivity, brain: 0.97 ± 0.11 % injected dose per gram
  Biodistribution of radioactivity, heart: 0.96 ± 0.13 % injected dose per gram
  Biodistribution of radioactivity, intestine: 18.87 ± 2.27 % injected dose per organ
  Biodistribution of radioactivity, kidney: 6.25 ± 1.23 % injected dose per gram
  Biodistribution of radioactivity, liver: 6.29 ± 0.22 % injected dose per gram
  Biodistribution of radioactivity, lung: 4.30 ± 0.58 % injected dose per gram
  Biodistribution of radioactivity, muscle: 0.95 ± 0.08 % injected dose per gram
  Biodistribution of radioactivity, pancreas: 1.06 ± 0.16 % injected dose per gram
  Biodistribution of radioactivity, spleen: 0.62 ± 0.03 % injected dose per gram
  Biodistribution of radioactivity, stomach: 1.67 ± 0.33 % injected dose per organ
  Biodistribution of radioactivity, thyroid: 0.12 ± 0.04 % injected dose per organ
[4]
  Biodistribution of radioactivity, blood: 0.83 ± 0.06 % injected dose per gram
  Biodistribution of radioactivity, brain: 0.37 % injected dose per gram
  Biodistribution of radioactivity, heart: 0.55 ± 0.10 % injected dose per gram
  Biodistribution of radioactivity, intestine: 25.30 ± 3.94 % injected dose per organ
  Biodistribution of radioactivity, kidney: 3.40 ± 0.48 % injected dose per gram
  Biodistribution of radioactivity, liver: 3.31 ± 0.37 % injected dose per gram
  Biodistribution of radioactivity, lung: 1.91 ± 0.29 % injected dose per gram
  Biodistribution of radioactivity, muscle: 0.72 ± 0.20 % injected dose per gram
  Biodistribution of radioactivity, pancreas: 0.57 ± 0.05 % injected dose per gram
  Biodistribution of radioactivity, spleen: 0.36 ± 0.03 % injected dose per gram
  Biodistribution of radioactivity, stomach: 1.04 ± 0.30 % injected dose per organ
  Biodistribution of radioactivity, thyroid: 0.22 ± 0.05 % injected dose per organ
carrier-added, SA ≈ 60 GBq/μmol, 60 min, listed as [125I]7a
  Biodistribution of radioactivity, brain: 0.37 ± 0.05 % injected dose per gram
  brain2 min/brain60 min ratio: 12.8
2 min
  Biodistribution of radioactivity, blood: 5.03 ± 0.20 % injected dose per gram
  Biodistribution of radioactivity, brain: > 5 % injected dose per gram and 7.04 % injected dose per gram
  Biodistribution of radioactivity, heart: 9.70 ± 2.25 % injected dose per gram
  Biodistribution of radioactivity, intestine: 6.46 ± 0.79 % injected dose per organ
  Biodistribution of radioactivity, kidney: 12.03 ± 1.20 % injected dose per gram
  Biodistribution of radioactivity, liver: 22.45 ± 3.88 % injected dose per gram
  Biodistribution of radioactivity, lung: 10.78 ± 2.33 % injected dose per gram
  Biodistribution of radioactivity, muscle: 3.72 ± 0.51 % injected dose per gram
  Biodistribution of radioactivity, pancreas: 8.15 ± 1.09 % injected dose per gram
  Biodistribution of radioactivity, spleen: 3.86 ± 0.21 % injected dose per gram
  Biodistribution of radioactivity, stomach: 1.32 ± 0.21 % injected dose per organ
  Biodistribution of radioactivity, thyroid: 0.12 ± 0.02 % injected dose per organ
2 min, listed as [125I]7a
  Biodistribution of radioactivity, brain: 7.04 ± 0.89 % injected dose per gram
10 min
  Biodistribution of radioactivity, blood: 3.03 ± 0.48 % injected dose per gram
  Biodistribution of radioactivity, brain: 2.73 ± 0.25 % injected dose per gram
  Biodistribution of radioactivity, heart: 2.01 ± 0.14 % injected dose per gram
  Biodistribution of radioactivity, intestine: 17.21 ± 2.33 % injected dose per organ
  Biodistribution of radioactivity, kidney: 9.53 ± 1.58 % injected dose per gram
  Biodistribution of radioactivity, liver: 14.43 ± 2.37 % injected dose per gram
  Biodistribution of radioactivity, lung: 7.44 ± 1.59 % injected dose per gram
  Biodistribution of radioactivity, muscle: 1.28 ± 0.11 % injected dose per gram
  Biodistribution of radioactivity, pancreas: 2.07 ± 0.30 % injected dose per gram
  Biodistribution of radioactivity, spleen: 1.32 ± 0.13 % injected dose per gram
  Biodistribution of radioactivity, stomach: 1.08 ± 0.24 % injected dose per organ
  Biodistribution of radioactivity, thyroid: 0.09 ± 0.02 % injected dose per organ
30 min
  Biodistribution of radioactivity, blood: 2.17 ± 0.31 % injected dose per gram
  Biodistribution of radioactivity, brain: 1.05 ± 0.22 % injected dose per gram
  Biodistribution of radioactivity, heart: 1.65 ± 0.43 % injected dose per gram
  Biodistribution of radioactivity, intestine: 19.88 ± 4.22 % injected dose per organ
  Biodistribution of radioactivity, kidney: 6.71 ± 0.78 % injected dose per gram
  Biodistribution of radioactivity, liver: 12.35 ± 2.83 % injected dose per gram
  Biodistribution of radioactivity, lung: 4.25 ± 0.41 % injected dose per gram
  Biodistribution of radioactivity, muscle: 1.29 ± 0.31 % injected dose per gram
  Biodistribution of radioactivity, pancreas: 2.61 ± 0.59 % injected dose per gram
  Biodistribution of radioactivity, spleen: 1.26 ± 0.20 % injected dose per gram
  Biodistribution of radioactivity, stomach: 4.38 ± 1.00 % injected dose per organ
  Biodistribution of radioactivity, thyroid: 0.12 ± 0.01 % injected dose per organ
60 min
  Biodistribution of radioactivity, blood: 1.96 ± 0.31 % injected dose per gram
  Biodistribution of radioactivity, brain: 0.55 % injected dose per gram
  Biodistribution of radioactivity, heart: 1.00 ± 0.18 % injected dose per gram
  Biodistribution of radioactivity, intestine: 20.21 ± 7.78 % injected dose per organ
  Biodistribution of radioactivity, kidney: 6.56 ± 1.10 % injected dose per gram
  Biodistribution of radioactivity, liver: 5.15 ± 1.09 % injected dose per gram
  Biodistribution of radioactivity, lung: 4.04 ± 1.63 % injected dose per gram
  Biodistribution of radioactivity, muscle: 1.36 ± 0.25 % injected dose per gram
  Biodistribution of radioactivity, pancreas: 1.97 ± 0.48 % injected dose per gram
  Biodistribution of radioactivity, spleen: 1.14 ± 0.56 % injected dose per gram
  Biodistribution of radioactivity, stomach: 2.44 ± 0.97 % injected dose per organ
  Biodistribution of radioactivity, thyroid: 0.16 ± 0.03 % injected dose per organ
60 min, listed as [125I]7a
  Biodistribution of radioactivity, brain: 0.55 ± 0.11 % injected dose per gram
